In experiment [1] the target is T1, RIPK2 (KD)/XIAP (BIR2) (Homo sapiens, UniProt O43353).
T1 construct: made in house; host or cells: baculovirus-infected Sf9 cells
Description: RIPK2-XIAP binding competition PPI assay (TR-FRET). As to conditions: for Emax: 50 nM of GSK583 = -100% activity, read-out: PPI Amax; for pIC50: GST-RIPK2 / His-XIAP (BIR2)-avi, 120 min at 23° C. The gist of the method:
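TR-FRET competition between GST-RIPK2 (aa 1-310, 1 nM) and His-XIAP BIR2-avi (aa 152-231, 25 nM), both Sf9-expressed, detected with anti-His-XL665 and anti-GST-Tb in Tris pH 7.5 buffer with MgCl2, DTT and vanadate. Incubation was 120 min at 23 °C; the 665/520 nm ratio was normalized to no inhibitor (0%) and 50 nM GSK583 (−100%).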
On the technique in general: Time-resolved FRET reads energy transfer from a long-lived donor to a nearby acceptor.

The test system of experiment [2] is THP1-Dual cells, NF-κB pathway (SEAP). Description: THP-1 Dual cell SEAP assay (L18-MDP stimulated). It is filed as cell-based. As to conditions: Homo sapiens, 10 ng/mL L18-MDP, 20-24 h, SEAP readout, read-out: IFNγ THP1 IC50. The gist of the method:
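About 25,000 THP1-Dual cells per well were preincubated 30 min with serially diluted compound, then stimulated overnight (20-24 h, 37 °C) with 10 ng/mL L18-MDP (final). NF-κB-driven SEAP in supernatant was read with QUANTI-Blue at OD 620-655 nm after 2 h; % inhibition versus DMSO/L18-MDP wells was fitted by non-linear regression to give IC50.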

Drawing on patent US20260091026A1, “METHODS OF TREATING INFLAMMATORY DISEASES” (INTERLINE THERAPEUTICS, INC., priority 2023, published 2026), this text covers Emax and IC50 for 15 molecules.

pIC50: −log10 of the molar value.

T1 sequence (O43353 1-310): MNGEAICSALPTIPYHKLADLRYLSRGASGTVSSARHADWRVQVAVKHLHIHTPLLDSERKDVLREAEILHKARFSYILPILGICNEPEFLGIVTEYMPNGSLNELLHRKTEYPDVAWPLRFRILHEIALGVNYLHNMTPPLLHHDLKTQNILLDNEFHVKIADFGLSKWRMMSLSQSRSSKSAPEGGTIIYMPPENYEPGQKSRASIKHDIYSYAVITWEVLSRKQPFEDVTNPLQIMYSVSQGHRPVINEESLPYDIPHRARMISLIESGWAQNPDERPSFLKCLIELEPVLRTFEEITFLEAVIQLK

As usually defined, the pIC50 is the IC50 on a negative log10 scale, so that one unit is a factor of ten. `COc1cc2ncc(-c3cc(C(=O)N[C@H](C)c4ncccc4F)n(CCO)n3)n2cc1S(=O)(=O)C(C)(C)C` [Example 143, (R)-3-(6-(tert-butylsulfonyl)-7-methoxyimidazo[1,2-a]pyridin-3-yl)-N-(1-(3-fluoropyridin-2-yl)ethyl)-1-(2-hydroxyethyl)-1H-pyrazole-5-carboxamide]: in experiment [1], the Emax was at least 80% and the negative logarithm of the IC50 (pIC50) is 7.00 to 8.00. Moreover, in experiment [2], the negative-log IC50 (pIC50) is 6.30 to 7.00.

For the molecule `COc1cc2ncc(-c3cc(C(=O)N[C@H](C)c4ccccn4)n(CCCO)n3)n2cc1S(=O)(=O)C(C)(C)C` [Example 144, (R)-3-(6-(tert-butylsulfonyl)-7-methoxyimidazo[1,2-a]pyridin-3-yl)-1-(3-hydroxypropyl)-N-(1-(pyridin-2-yl)ethyl)-1H-pyrazole-5-carboxamide], in experiment [1], the Emax is at least 80% and the pIC50 is 7.00 to 8.00. Moreover, in experiment [2], the pIC50 is 6.30 to 7.00.

In the case of `COc1cc2ncc(-c3cc(C(=O)N[C@H](C)c4ncccc4F)n(CCCO)n3)n2cc1S(=O)(=O)C(C)(C)C` [Example 145, (R)-3-(6-(tert-butylsulfonyl)-7-methoxyimidazo[1,2-a]pyridin-3-yl)-N-(1-(3-fluoropyridin-2-yl)ethyl)-1-(3-hydroxypropyl)-1H-pyrazole-5-carboxamide], in experiment [1], the Emax was at least 80% and the negative logarithm of the IC50 (pIC50) is 7.00 to 8.00. For the same molecule, the negative logarithm of the IC50 (pIC50) in experiment [2] is over 7.00.

As for `COc1cc2ncc(-c3cc(C(=O)N[C@H](C)c4ccccn4)[nH]n3)n2cc1S(=O)(=O)C(C)(C)C` [Example 146, (R)-3-(6-(tert-butylsulfonyl)-7-methoxyimidazo[1,2-a]pyridin-3-yl)-N-(1-(pyridin-2-yl)ethyl)-1H-pyrazole-5-carboxamide], in experiment [1], the Emax was at least 80% and the pIC50 was 7.00 to 8.00. Further, in experiment [2], the pIC50 was 6.30 to 7.00.

As to `COc1cc2ncc(-c3cc(C(=O)N[C@H](C)c4ncccc4F)n(C4CN(C)C4)n3)n2cc1S(=O)(=O)C(C)(C)C` [Example 147, (R)-3-(6-(tert-butylsulfonyl)-7-methoxyimidazo[1,2-a]pyridin-3-yl)-N-(1-(3-fluoropyridin-2-yl)ethyl)-1-(1-methylazetidin-3-yl)-1H-pyrazole-5-carboxamide], in experiment [1], the Emax is at least 80%. For the same molecule, the pIC50 was 6.00 to 7.00 in experiment [1] and 5.60 to 6.30 in experiment [2].

For the molecule `COc1cc2ncc(-n3cc(C(=O)NCc4ccccc4)c(C)n3)n2cc1S(=O)(=O)C(C)(C)C` [Example 148, N-benzyl-1-(6-(tert-butylsulfonyl)-7-methoxyimidazo[1,2-a]pyridin-3-yl)-3-methyl-1H-pyrazole-4-carboxamide], in experiment [1], the Emax was at least 80% and the negative-log IC50 (pIC50) is 6.00 to 7.00. The pIC50 in experiment [2] was under 5.60.

With `COc1cc2ncc(-c3cc(NC(=O)OCc4ccccc4)n(C)n3)n2cc1S(=O)(=O)C(C)(C)C` [Example 149], the Emax in experiment [1] is at least 80%. The values for the pIC50 in experiment [1] and in experiment [2] were 7.00 to 8.00 and 6.30 to 7.00, respectively.

`COc1cc2ncc(-c3cc(NC(=O)O[C@@H](C)c4ccccc4)n(C)n3)n2cc1S(=O)(=O)C(C)(C)C` [Example 150, (S)-1-phenylethyl (3-(6-(tert-butylsulfonyl)-7-methoxyimidazo[1,2-a]pyridin-3-yl)-1-methyl-1H-pyrazol-5-yl)carbamate]: in experiment [1], the Emax was at least 80%. Moreover, the figures for the pIC50 in experiment [1] and in experiment [2] were 6.00 to 7.00 and 5.60 to 6.30, respectively.

Take `COc1cc2ncc(-c3cc(NC(=O)O[C@H](C)c4ccccc4)n(C)n3)n2cc1S(=O)(=O)C(C)(C)C` [Example 151, (R)-1-phenylethyl (3-(6-(tert-butylsulfonyl)-7-methoxyimidazo[1,2-a]pyridin-3-yl)-1-methyl-1H-pyrazol-5-yl)carbamate]: in experiment [1], the Emax was at least 80% and the pIC50 is over 8.00. Further, in experiment [2], the pIC50 was over 7.00.

As for `C[C@H](CO)COc1cc2ncc(-c3cc(NC(=O)Cc4ccccc4Cl)n(C)n3)n2cc1S(=O)(=O)C(C)(C)C` [Example 187, (R)-N-(3-(6-(tert-butylsulfonyl)-7-(3-hydroxy-2-methylpropoxy)imidazo [1,2-a]pyridin-3-yl)-1-methyl-1H-pyrazol-5-yl)-2-(2-chlorophenyl)acetamide], in experiment [1], the Emax was at least 80% and the pIC50 was over 8.00. The pIC50 in experiment [2] is 6.30 to 7.00.

Consider `C[C@@H](CO)COc1cc2ncc(-c3cc(NC(=O)Cc4ccccc4Cl)n(C)n3)n2cc1S(=O)(=O)C(C)(C)C` [Example 188, (S)-N-(3-(6-(tert-butylsulfonyl)-7-(3-hydroxy-2-methylpropoxy)imidazo [1,2-a]pyridin-3-yl)-1-methyl-1H-pyrazol-5-yl)-2-(2-chlorophenyl) acetamide], for which, in experiment [1], the Emax is at least 80% and the pIC50 is over 8.00. Also, the negative-log IC50 (pIC50) in experiment [2] is 6.30 to 7.00.

Turning to `CNc1nccn2c(-c3cc(C(=O)NCc4ccccc4)n(C)n3)cnc12` [Example 189, N-benzyl-1-methyl-3-(8-(methylamino)imidazo[1,2-a]pyrazin-3-yl)-1H-pyrazole-5-carboxamide], the Emax in experiment [1] was in the range of 55 to 80%. Further, the negative-log IC50 (pIC50) in experiment [1] is under 6.00; in experiment [2] it was under 5.60.

For the molecule `CNc1nccn2c(-c3cc(C(=O)N[C@H](C)c4ccccc4)n(C)n3)cnc12` [Example 190, (R)-1-methyl-3-(8-(methylamino)imidazo [1,2-a]pyrazin-3-yl)-N-(1-phenylethyl)-1H-pyrazole-5-carboxamide], in experiment [1], the Emax fell in the range of 30 to 55% and the pIC50 was under 6.00. For the same molecule, the negative logarithm of the IC50 (pIC50) in experiment [2] is under 5.60.

With `COc1cc2ncnc(-c3cc(C(=O)NCc4ccccc4)n(C)n3)c2cc1S(=O)(=O)C(C)(C)C` [Example 191, N-benzyl-3-(6-(tert-butylsulfonyl)-7-methoxyquinazolin-4-yl)-1-methyl-1H-pyrazole-5-carboxamide], in experiment [1], the Emax is at least 80% and the negative-log IC50 (pIC50) was 6.00 to 7.00. In addition, in experiment [2], the pIC50 was under 5.60.

Regarding `COc1cc2ncnc(-c3cc(C(=O)N[C@H](C)c4ccccc4)n(C)n3)c2cc1S(=O)(=O)C(C)(C)C` [Example 192, (R)-3-(6-(tert-butylsulfonyl)-7-methoxyquinazolin-4-yl)-1-methyl-N-(1-phenylethyl)-1H-pyrazole-5-carboxamide], in experiment [1], the Emax was at least 80%. For the same molecule, the pIC50 in experiment [1] is 7.00 to 8.00; in experiment [2], 5.60 to 6.30.
